Reference: ChEMBL document CHEMBL1201862, “PubChem BioAssay data set” (2004)
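Method: 48-hour compound exposure of cells in 96-well plates, five concentrations, linear interpolation of endpoints. GI50 marks 50% less growth.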 The source made the active and inactive calls. No stated cut-off is given here; in the data, active = GI50 up to about 1.1 µM and inactive = higher.

What was measured:
Experiment in all cases: inhibition of tumour cell growth, NCI panel, 48 h
SN12C = system: SN12C
786-0 = system: 786-0
NCI-H522 = system: NCI-H522
A498 = system: A498
NCI-H460 = system: NCI-H460
MDA-N = system: MDA-N
KM12 = system: KM12
IGROV-1 = system: IGROV-1
COLO 205 = system: COLO 205
UACC-257 = system: UACC-257
SW-620 = system: SW-620
HCC 2998 = system: HCC 2998
PC-3 = system: PC-3
SK-MEL-5 = system: SK-MEL-5
SNB-19 = system: SNB-19
HOP-92 = system: HOP-92
MDA-MB-231 = system: MDA-MB-231
ACHN = system: ACHN
MOLT-4 = system: MOLT-4
SNB-75 = system: SNB-75
DU-145 = system: DU-145
SR = system: SR
SK-MEL-2 = system: SK-MEL-2
NCI/ADR-RES = system: NCI/ADR-RES
OVCAR-3 = system: OVCAR-3
Hs-578T = system: Hs-578T
CCRF-CEM = system: CCRF-CEM
EKVX = system: EKVX
CAKI-1 = system: CAKI-1
Malme-3M = system: Malme-3M
SF-539 = system: SF-539
A549 = system: A549
SK-MEL-28 = system: SK-MEL-28
UO-31 = system: UO-31
BT-549 = system: BT-549
SF-295 = system: SF-295
HCT-15 = system: HCT-15
MDA-MB-435 = system: MDA-MB-435
OVCAR-5 = system: OVCAR-5
TK-10 = system: TK-10
NCI-H226 = system: NCI-H226
LOX IMVI = system: LOX IMVI
U-251 = system: U-251
SF-268 = system: SF-268
M14 = system: M14
HCT-116 = system: HCT-116
OVCAR-4 = system: OVCAR-4
T47D = system: T47D
RXF 393 = system: RXF 393
UACC-62 = system: UACC-62
HL-60 = system: HL-60
MCF7 = system: MCF7
RPMI-8226 = system: RPMI-8226
K562 = system: K562
OVCAR-8 = system: OVCAR-8
HT-29 = system: HT-29
SK-OV-3 = system: SK-OV-3
NCI-H23 = system: NCI-H23
HOP-62 = system: HOP-62

For `COc1ccc(/C=N/N2C(=O)c3c(N)c(C#N)c(-c4ccccc4)c(-c4ccccc4)c3C2=O)cc1`, the GI50 (SN12C) was > 100 µM (inactive), the GI50 (786-0) was 64.6 µM (inactive) and the GI50 (NCI-H522) was > 100 µM (inactive). The GI50 (A498) was > 100 µM (inactive), the GI50 (NCI-H460) was > 100 µM (inactive) and the GI50 (MDA-N) was > 100 µM (inactive). The GI50 (KM12) was > 100 µM (inactive), the GI50 (IGROV-1) was > 100 µM (inactive) and the GI50 (COLO 205) was > 100 µM (inactive). For the same molecule, the GI50 (UACC-257) was > 100 µM (inactive), the GI50 (SW-620) was > 100 µM (inactive) and the GI50 (HCC 2998) was > 100 µM (inactive). The GI50 (PC-3) was > 100 µM (inactive), the GI50 (SK-MEL-5) was > 100 µM (inactive) and the GI50 (SNB-19) was 76.9 µM (inactive). For the same molecule, the GI50 (HOP-92) was 84.3 µM (inactive), the GI50 (MDA-MB-231) was > 100 µM (inactive) and the GI50 (ACHN) was 44.7 µM (inactive). The GI50 (MOLT-4) was > 100 µM (inactive), the GI50 (SNB-75) was 88.7 µM (inactive) and the GI50 (DU-145) was > 100 µM (inactive). For the same molecule, the GI50 (SR) was > 100 µM (inactive), the GI50 (SK-MEL-2) was > 100 µM (inactive) and the GI50 (NCI/ADR-RES) was > 100 µM (inactive). For the same molecule, the GI50 (OVCAR-3) was > 100 µM (inactive), the GI50 (Hs-578T) was > 100 µM (inactive) and the GI50 (CCRF-CEM) was > 100 µM (inactive). The GI50 (EKVX) was > 100 µM (inactive), the GI50 (CAKI-1) was > 100 µM (inactive) and the GI50 (Malme-3M) was > 100 µM (inactive). The GI50 (SF-539) was > 100 µM (inactive), the GI50 (A549) was > 100 µM (inactive) and the GI50 (SK-MEL-28) was > 100 µM (inactive). For the same molecule, the GI50 (UO-31) was > 100 µM (inactive), the GI50 (BT-549) was > 100 µM (inactive) and the GI50 (SF-295) was 70.8 µM (inactive). For the same molecule, the GI50 (HCT-15) was > 100 µM, the GI50 (MDA-MB-435) was > 100 µM (inactive) and the GI50 (OVCAR-5) was > 100 µM (inactive). The GI50 (TK-10) was 42.4 µM (inactive), the GI50 (NCI-H226) was > 100 µM (inactive) and the GI50 (LOX IMVI) was > 100 µM (inactive). For the same molecule, the GI50 (U-251) was 98.6 µM (inactive), the GI50 (SF-268) was > 100 µM (inactive) and the GI50 (M14) was > 100 µM (inactive). For the same molecule, the GI50 (HCT-116) was 3.65 µM (inactive), the GI50 (OVCAR-4) was 99.8 µM (inactive) and the GI50 (T47D) was > 100 µM (inactive). The GI50 (RXF 393) was 72.8 µM (inactive), the GI50 (UACC-62) was > 100 µM (inactive) and the GI50 (HL-60) was > 100 µM (inactive). The GI50 (MCF7) was > 100 µM (inactive), the GI50 (RPMI-8226) was > 100 µM (inactive) and the GI50 (K562) was > 100 µM (inactive). The GI50 (OVCAR-8) was 82.4 µM (inactive).
`c1csc(-c2ccc(-c3ccc(-c4cccs4)s3)s2)c1` was tested, and the GI50 (SN12C) was > 100 µM (inactive), the GI50 (786-0) was > 100 µM (inactive) and the GI50 (NCI-H522) was > 100 µM (inactive). The GI50 (A498) was > 100 µM (inactive), the GI50 (NCI-H460) was > 100 µM (inactive) and the GI50 (MDA-N) was > 100 µM (inactive). The GI50 (KM12) was > 100 µM (inactive), the GI50 (IGROV-1) was > 100 µM (inactive) and the GI50 (COLO 205) was > 100 µM (inactive). For the same molecule, the GI50 (UACC-257) was > 100 µM (inactive), the GI50 (SW-620) was > 100 µM (inactive) and the GI50 (HCC 2998) was > 100 µM (inactive). For the same molecule, the GI50 (PC-3) was > 100 µM (inactive), the GI50 (SK-MEL-5) was > 100 µM (inactive) and the GI50 (SNB-19) was > 100 µM (inactive). The GI50 (MDA-MB-231) was > 100 µM (inactive), the GI50 (ACHN) was > 100 µM (inactive) and the GI50 (MOLT-4) was > 100 µM (inactive). For the same molecule, the GI50 (SNB-75) was > 100 µM (inactive), the GI50 (DU-145) was > 100 µM (inactive) and the GI50 (HT-29) was > 100 µM (inactive). The GI50 (SK-OV-3) was > 100 µM (inactive), the GI50 (SR) was > 100 µM (inactive) and the GI50 (SK-MEL-2) was > 100 µM (inactive). The GI50 (NCI/ADR-RES) was > 100 µM (inactive), the GI50 (OVCAR-3) was > 100 µM (inactive) and the GI50 (Hs-578T) was > 100 µM (inactive). For the same molecule, the GI50 (NCI-H23) was > 100 µM (inactive), the GI50 (EKVX) was > 100 µM (inactive) and the GI50 (CAKI-1) was > 100 µM (inactive). The GI50 (Malme-3M) was > 100 µM (inactive), the GI50 (SF-539) was > 100 µM (inactive) and the GI50 (A549) was > 100 µM (inactive). The GI50 (SK-MEL-28) was > 100 µM (inactive), the GI50 (UO-31) was > 100 µM (inactive) and the GI50 (BT-549) was > 100 µM (inactive). The GI50 (SF-295) was > 100 µM (inactive), the GI50 (HCT-15) was > 100 µM and the GI50 (HOP-62) was > 100 µM (inactive). The GI50 (MDA-MB-435) was > 100 µM (inactive), the GI50 (OVCAR-5) was > 100 µM (inactive) and the GI50 (TK-10) was > 100 µM (inactive). For the same molecule, the GI50 (NCI-H226) was > 100 µM (inactive), the GI50 (LOX IMVI) was > 100 µM (inactive) and the GI50 (U-251) was > 100 µM (inactive). The GI50 (SF-268) was > 100 µM (inactive), the GI50 (M14) was > 100 µM (inactive) and the GI50 (HCT-116) was > 100 µM (inactive). For the same molecule, the GI50 (OVCAR-4) was > 100 µM (inactive), the GI50 (T47D) was > 100 µM (inactive) and the GI50 (RXF 393) was > 100 µM (inactive). The GI50 (UACC-62) was > 100 µM (inactive), the GI50 (HL-60) was > 100 µM (inactive) and the GI50 (MCF7) was > 100 µM (inactive). The GI50 (RPMI-8226) was > 100 µM (inactive) and the GI50 (OVCAR-8) was > 100 µM (inactive).
